Assays:
[1] = system: wild-type rapeseed plants (variety: Westar); experiment: Rapeseed sensitivity test 1 (post-sowing/pre-emergence soil treatment), wild type; type: in vivo, Brassica napus
Experimental: Wild-type rapeseed plants (variety: Westar) and transgenic rapeseed plants comprising the wheat GST gene introduced therein were subjected to Rapeseed sensitivity test 1 in plastic pots (length: 8 cm; width: 8 cm; height: 6 cm). The test was carried out in Fujino soil (sandy loam soil), and 4 seeds of wild-type rapeseed and 8 seeds of transgenic rapeseed were sown in each pot (sowing depth: 1 cm). Water dispersible granules containing 50% pyroxasulfone were applied at 5 different doses of 1, 4, 16, 63, and 250 g a.i./ha (n=3). Immediately after pyroxasulfone treatment, about 1 mm of rain was fallen with the use of artificial rainfall device, and water was supplied from the bottom of the pots. Thereafter, water was supplied from the bottom of the pot when the soil surface was dried in the pot, according to need.
The difference in the sensitivity of rapeseed to pyroxasulfone applied pre-emergence was examined (temperature: 22° C., fluorescent light), and whether or not the transgenic rapeseed plant comprising wheat GST had pyroxasulfone resistance was evaluated in terms of the plant height, the herbicidal symptoms, and the cotyledon growth. Specifically, heights of the plants were measured 2 weeks after seeds sowing of rapeseed and pyroxasulfone application, and the inhibition was assessed by comparison to control plants grown in the absence of pyroxauslfone (n=4 to 12). In FIGS. 37 to 39, “TaGST” stands for a transgenic rapeseed plant comprising the TaQ8GTC0 gene. Values in the table in FIG. 38 are expressed as the mean±standard deviation (n=4 to 12).

[2] = system: transgenic rapeseed plants comprising the TaQ8GTC0 gene; experiment: Rapeseed sensitivity test 2 (agar medium), transgenic; type: in vivo, Brassica napus; details: 10 μM pyroxasulfone, 22° C., 2 weeks
Source text: In order to investigate the extent of pyroxasulfone resistance of the transgenic rapeseed plants comprising the […] gene introduced therein compared to wild-type plants, the growth of rapeseed was examined in an agar medium containing pyroxasulfone. Wild-type rapeseed plants (variety: Westar) and transgenic rapeseed plants comprising the TaQ8GTC0 gene introduced therein were subjected to the growth inhibitory test in an agar medium, so as to examine the resistance thereof to pyroxasulfone.
The medium (1 liter) used in the test was composed of 1× Murashige-Skoog (MS) media (a bag), thiamin hydrochloride (3 μg/ml), nicotinic acid (5 μg/ml), pyridoxin hydrochloride (0.5 μg/ml), and 1% (w/v) sucrose. The composition was added to a 1-liter beaker, a pH was adjusted to 5.7, and the volume of the composition was adjusted to 1 liter, followed by the addition of 8 g (0.8%) of agar. Thereafter, the composition was autoclaved, the temperature was cooled to room temperature, and pyroxasulfone (acetone solution) at a given concentration was added. […]
The sensitivity of rapeseed was examined in agar media comprising pyroxasulfone (0.1 μM, 1 μM, 10 μM, and 100 μM). […] Values in the table in FIGS. 41 and 42 are expressed as the mean±standard deviation (n=4 to 5). Values in FIG. 43 are expressed as the means (n=4 to 5).

Cn1nc(C(F)(F)F)c(CS(=O)(=O)C2=NOC(C)(C)C2)c1OC(F)F [Pyroxasulfone, 3-[5-(difluoromethoxy)-1-methyl-3-(trifluoromethyl)pyrazol-4-ylmethylsulfonyl]-4,5-dihydro-5,5-dimethyl-1,2-oxazole]
inhibition at 16 g/ha ([1]; Brassica napus, 336 h, 16 g a.i./ha, 2 weeks after sowing and application, 22° C., read-out: shoot growth inhibition (plant height)): 61.9% | dose at which cotyledon growth was substantially completely inhibited ([1]; pre-emergence soil treatment): ≥ 16 g a.i./ha | dose at which cotyledons became dark green (herbicidal symptoms) ([1]; pre-emergence soil treatment): ≥ 16 g a.i./ha | inhibition ratio on foliage leaf development [2]: 1.2±2.7% | inhibition ratio on plant height [2]: 7.8±5.9%

— patent US11198710B2, “Transgenic plant having herbicide resistance” (priority 2016, dated 2021)
